Assay results taken from US11986471B2, “Compounds and methods of use” (Tango Therapeutics, Inc., priority 2018, dated 2024).

What was measured:
PRMT5 [1] = molecular target: T1, PRMT5 (Homo sapiens, UniProt O14744); assay: PRMT5 IC50 assay in the presence of SAM as cofactor; assay type: biochemical
T1 construct: purchased Viva (custom protein)
How it was run: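 For the SAM-containing format, dividing IC50 by 1.5 yields Ki; for the MTA-containing format the divisor is 13.5. A third format without cofactor gives IC50 alone.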

PRMT5 [2] = molecular target: T1, PRMT5; assay: PRMT5 IC50 assay in the presence of MTA as cofactor; assay type: biochemical; conditions: for IC50: PRMT5, MTA as cofactor
How it was run: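 Three cofactor conditions tested for PRMT5 inhibition: none, MTA and SAM, each giving an IC50. For conversion to Ki, the MTA-condition IC50 is divided by 13.5 and the SAM-condition IC50 by 1.5, and the two Ki values are expressed as a SAM/MTA ratio.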

PRMT5 [3] = molecular target: T1, PRMT5; assay: PRMT5 IC50 assay with no cofactor; assay type: biochemical
How it was run: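 Human PRMT5 inhibition, IC50 in μM; cofactor varied (SAM / MTA / none).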

HAP1 MTAP-intact = assay: SDMA in-cell western assay, HAP1 MTAP-intact cell line; assay type: cell-based; conditions: Homo sapiens
How it was run: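 Using an MTAP-isogenic HAP1 cell pair, inhibition of SDMA formation is read by in-cell western and expressed as IC50. MTAP-selectivity is assigned where the ratio between lines reaches 3 fold or greater.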

HAP1 MTAP-deleted = assay: SDMA in-cell western assay, HAP1 MTAP-deleted cell line; assay type: cell-based; conditions: for IC50: Homo sapiens, HAP1 MTAP-deleted cell line; for MTAP Intact/Deleted Ratio: IC50 ratio HAP1 MTAP-intact / HAP1 MTAP-deleted
How it was run: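 In-cell western for SDMA marks; MTAP-deleted (null) HAP1 background; values given as IC50.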

[4] = ratio between Ki in the presence of SAM and Ki in the presence of MTA
[5] = ratio between the Ki in the presence of SAM and the Ki in the presence of MTA

T1 sequence (O14744 whole entry): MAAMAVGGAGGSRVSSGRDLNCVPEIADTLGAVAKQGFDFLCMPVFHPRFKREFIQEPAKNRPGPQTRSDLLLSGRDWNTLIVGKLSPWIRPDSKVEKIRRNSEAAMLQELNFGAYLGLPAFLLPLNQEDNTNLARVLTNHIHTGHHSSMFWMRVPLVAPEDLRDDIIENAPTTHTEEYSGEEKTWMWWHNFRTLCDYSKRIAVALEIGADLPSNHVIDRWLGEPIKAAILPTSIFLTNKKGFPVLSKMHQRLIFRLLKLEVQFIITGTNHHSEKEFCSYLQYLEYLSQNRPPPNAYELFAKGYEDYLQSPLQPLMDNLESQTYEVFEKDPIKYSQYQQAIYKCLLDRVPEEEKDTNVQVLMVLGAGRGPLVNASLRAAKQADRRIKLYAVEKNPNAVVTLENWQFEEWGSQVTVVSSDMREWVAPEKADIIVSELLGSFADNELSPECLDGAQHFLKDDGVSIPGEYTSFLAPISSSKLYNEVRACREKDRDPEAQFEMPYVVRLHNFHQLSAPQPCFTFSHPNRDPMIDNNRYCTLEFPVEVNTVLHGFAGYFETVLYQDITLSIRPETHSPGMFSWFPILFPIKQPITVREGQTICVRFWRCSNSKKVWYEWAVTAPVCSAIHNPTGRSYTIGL
T1 sequence (Q9BQA1 whole entry partner): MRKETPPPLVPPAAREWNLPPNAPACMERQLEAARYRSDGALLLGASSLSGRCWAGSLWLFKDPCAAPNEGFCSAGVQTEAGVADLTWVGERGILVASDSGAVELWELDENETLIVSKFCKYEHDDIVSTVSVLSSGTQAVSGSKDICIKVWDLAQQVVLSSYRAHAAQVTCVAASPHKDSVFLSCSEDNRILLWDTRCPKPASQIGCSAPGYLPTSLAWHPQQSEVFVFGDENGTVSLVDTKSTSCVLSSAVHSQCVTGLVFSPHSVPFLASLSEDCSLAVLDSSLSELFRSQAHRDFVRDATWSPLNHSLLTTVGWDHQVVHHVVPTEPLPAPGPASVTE

SMILES | IC50 (PRMT5 [1]) [nM] | IC50 (PRMT5 [2]) [nM] | IC50 (PRMT5 [3]; read-out: No Co-factor IC50) [nM] | IC50 (HAP1 MTAP-intact) [nM] | IC50 (HAP1 MTAP-deleted) [nM] | IC50 (PRMT5 [3]) [nM] | SAM/MTA Ratio (PRMT5 [2]; [4]) | MTAP Intact/Deleted Ratio (HAP1 MTAP-deleted) | SAM/MTA Ratio (PRMT5 [2]; [5])
Cc1ncoc1COc1ccc2c(c1C)CCN(C[C@@H](O)CNC(=O)c1cc(NC3COC3)nc(N3CCOCC3)n1)C2 [Compound 423, N-[(2S)-2-hydroxy-3-{5-methyl-6-[(4-methyl-1,3-oxazol-5-yl)methoxy]-1,2,3,4-tetrahydroisoquinolin-2-yl}propyl]-2-(morpholin-4-yl)-6-[(oxetan-3-yl)amino]pyrimidine-4-carboxamide] | 500 to 5000 | 50 to 500 | ≥ 5000 | ≥ 10000 | 1000 to 10000 |  | A (a Ki ratio greater than or equal to 10 fold between the Ki in the presence of SAM and the Ki in the presence of MTA) | C* (an IC50 ratio of less than 3 fold between the IC50 in the HAP1 MTAP-intact cell line and the HAP1 MTAP-deleted cell line) | 
Cc1c(OCc2cnco2)ccc2c1CCN(C[C@@H](O)CNC(=O)c1cccc(NC3COC3)c1)C2 [Compound 424, N-[(2S)-2-hydroxy-3-{5-methyl-6-[(1,3-oxazol-5-yl)methoxy]-1,2,3,4-tetrahydroisoquinolin-2-yl}propyl]-3-[(oxetan-3-yl)amino]benzamide] | 500 to 5000 | 500 to 5000 | ≥ 5000 | ≥ 10000 | ≥ 10000 |  | A (a Ki ratio greater than or equal to 10 fold between the Ki in the presence of SAM and the Ki in the presence of MTA) | C* (an IC50 ratio of less than 3 fold between the IC50 in the HAP1 MTAP-intact cell line and the HAP1 MTAP-deleted cell line) | 
Cc1c(OCc2cnco2)ccc2c1CCN(C[C@@H](O)CNC(=O)c1ccnc(NC3CCN(C(=O)C(C)C)CC3)c1)C2 [Compound 427] | 50 to 500 | 50 to 500 |  | ≥ 10000 | 1000 to 10000 | 500 to 5000 |  | B* (an IC50 ratio greater than or equal to 3 fold but lower than 10 fold between the IC50 in the HAP1 MTAP-intact cell line and the HAP1 MTAP-deleted cell line) | A (a Ki ratio greater than or equal to 10 fold between the Ki in the presence of SAM and the Ki in the presence of MTA)
Cc1ncoc1COc1ccc2c(c1)CCN(C[C@@H](O)CNC(=O)c1cc(NC3CCC3)nc(N3CCN(C(C)C)CC3)c1)C2 [Compound 428, 2-(cyclobutylamino)-N-[(2S)-2-hydroxy-3-{6-[(4-methyl-1,3-oxazol-5-yl)methoxy]-1,2,3,4-tetrahydroisoquinolin-2-yl}propyl]-6-[4-(propan-2-yl)piperazin-1-yl]pyridine-4-carboxamide] | 50 to 500 | < 50 |  | ≥ 10000 | ≥ 10000 | 500 to 5000 |  | C* (an IC50 ratio of less than 3 fold between the IC50 in the HAP1 MTAP-intact cell line and the HAP1 MTAP-deleted cell line) | A (a Ki ratio greater than or equal to 10 fold between the Ki in the presence of SAM and the Ki in the presence of MTA)
CC(=O)N1CCC(Nc2cc(C(=O)NC[C@H](O)CN3CCc4c(ccc(OCc5cnco5)c4Cl)C3)ccn2)CC1 [Compound 429] | 50 to 500 | 50 to 500 |  | ≥ 10000 | 1000 to 10000 | 500 to 5000 |  | B* (an IC50 ratio greater than or equal to 3 fold but lower than 10 fold between the IC50 in the HAP1 MTAP-intact cell line and the HAP1 MTAP-deleted cell line) | A (a Ki ratio greater than or equal to 10 fold between the Ki in the presence of SAM and the Ki in the presence of MTA)
CS(=O)(=O)N1CCC(Nc2cc(C(=O)NC[C@H](O)CN3CCc4cc(OCc5cnco5)ccc4C3)ccn2)CC1 [Compound 430, N-[(2S)-2-hydroxy-3-[6-(oxazol-5-ylmethoxy)-3,4-dihydro-1H-isoquinolin-2-yl]propyl]-2-[(1-methylsulfonyl-4-piperidyl)amino]pyridine-4-carboxamide] | 50 to 500 | 50 to 500 |  | ≥ 10000 | 1000 to 10000 | 500 to 5000 |  | C* (an IC50 ratio of less than 3 fold between the IC50 in the HAP1 MTAP-intact cell line and the HAP1 MTAP-deleted cell line) | A (a Ki ratio greater than or equal to 10 fold between the Ki in the presence of SAM and the Ki in the presence of MTA)
CCCC(=O)N1CCC(Nc2cc(C(=O)NC[C@H](O)CN3CCc4cc(OCc5cnco5)ccc4C3)ccn2)CC1 [Compound 431, 2-[(1-butanoyl-4-piperidyl)amino]-N-[(2S)-2-hydroxy-3-[6-(oxazol-5-ylmethoxy)-3,4-dihydro-1H-isoquinolin-2-yl]propyl]pyridine-4-carboxamide] | 50 to 500 | 50 to 500 |  | 1000 to 10000 | < 1000 | 500 to 5000 |  | B* (an IC50 ratio greater than or equal to 3 fold but lower than 10 fold between the IC50 in the HAP1 MTAP-intact cell line and the HAP1 MTAP-deleted cell line) | A (a Ki ratio greater than or equal to 10 fold between the Ki in the presence of SAM and the Ki in the presence of MTA)

The next lines start with results.

IC50 (PRMT5 [1]) [nM] | IC50 (PRMT5 [2]) [nM] | IC50 (PRMT5 [3]; read-out: No Co-factor IC50) [nM] | IC50 (HAP1 MTAP-intact) [nM] | IC50 (HAP1 MTAP-deleted) [nM] | IC50 (PRMT5 [3]) [nM] | SMILES | SAM/MTA Ratio (PRMT5 [2]; [4]) | MTAP Intact/Deleted Ratio (HAP1 MTAP-deleted) | SAM/MTA Ratio (PRMT5 [2]; [5])
50 to 500 | 50 to 500 | 500 to 5000 | 1000 to 10000 | 1000 to 10000 |  | O=C(NC[C@H](O)CN1CCc2cc(OCc3cnco3)ccc2C1)c1cc(NC2CCC2)nc(N2CCNCC2)c1 [Compound 422] | A (a Ki ratio greater than or equal to 10 fold between the Ki in the presence of SAM and the Ki in the presence of MTA) | C* (an IC50 ratio of less than 3 fold between the IC50 in the HAP1 MTAP-intact cell line and the HAP1 MTAP-deleted cell line) | 
50 to 500 | 50 to 500 | ≥ 5000 | ≥ 10000 | ≥ 10000 |  | O=C(NC[C@H](O)CN1CCc2c(ccc(OCc3cnco3)c2Cl)C1)c1ccnc(NC2CCC(F)(F)CC2)c1 [Compound 425, (S)—N-(3-(5-chloro-6-(oxazol-5-ylmethoxy)-3,4-dihydroisoquinolin-2(1H)-yl)-2-hydroxypropyl)-2-((4N-difluorocyclohexyl)amino)isonicotinamide] | A (a Ki ratio greater than or equal to 10 fold between the Ki in the presence of SAM and the Ki in the presence of MTA) | C* (an IC50 ratio of less than 3 fold between the IC50 in the HAP1 MTAP-intact cell line and the HAP1 MTAP-deleted cell line) | 
50 to 500 | 50 to 500 |  | ≥ 10000 | ≥ 10000 | 500 to 5000 | CCC(=O)N1CC(Nc2cc(C(=O)NC[C@H](O)CN3CCc4c(ccc(OCc5cnco5)c4Cl)C3)ccn2)C1 [Compound 426, (S)—N-(3-(5-chloro-6-(oxazol-5-ylmethoxy)-3,4-dihydroisoquinolin-2(1H)-yl)-2-hydroxypropyl)-2-((1-propionylazetidin-3-yl)amino)isonicotinamide] |  | C* (an IC50 ratio of less than 3 fold between the IC50 in the HAP1 MTAP-intact cell line and the HAP1 MTAP-deleted cell line) | A (a Ki ratio greater than or equal to 10 fold between the Ki in the presence of SAM and the Ki in the presence of MTA)
